# Results as given in patent US20070254312A1, “Protein Kinase Inhibitors and Methods for Identiying Same” (priority 2004, published 2007).
# Starred links: 1 amine or outer side, 2 acyl side, 3 side chain; linkers in the order of their positions; H or OH if unused. Non-standard residues stand in square brackets, D forms with d. Residues, ends and D or L forms follow the SMILES beside them. *: point of attachment. Benzoyl(4-(pyrrol-1-yl)) = O=C(c1ccc(-n2cccc2)cc1)*; Phenylacetyl(3,4-Cl2) = O=C(Cc1ccc(Cl)c(Cl)c1)*; Cysteamide = C(CS[*:3])N[*:1]; Dap = NC[C@H](N)C(=O)O
# Legend:
# [1] = molecular target: T1, PKCτ (Homo sapiens, UniProt P41743); experiment: PKC isoform assay, Example 1; format: biochemical
# T1 construct: purchased Pan Vera
# T1 sequence (P41743 1-596): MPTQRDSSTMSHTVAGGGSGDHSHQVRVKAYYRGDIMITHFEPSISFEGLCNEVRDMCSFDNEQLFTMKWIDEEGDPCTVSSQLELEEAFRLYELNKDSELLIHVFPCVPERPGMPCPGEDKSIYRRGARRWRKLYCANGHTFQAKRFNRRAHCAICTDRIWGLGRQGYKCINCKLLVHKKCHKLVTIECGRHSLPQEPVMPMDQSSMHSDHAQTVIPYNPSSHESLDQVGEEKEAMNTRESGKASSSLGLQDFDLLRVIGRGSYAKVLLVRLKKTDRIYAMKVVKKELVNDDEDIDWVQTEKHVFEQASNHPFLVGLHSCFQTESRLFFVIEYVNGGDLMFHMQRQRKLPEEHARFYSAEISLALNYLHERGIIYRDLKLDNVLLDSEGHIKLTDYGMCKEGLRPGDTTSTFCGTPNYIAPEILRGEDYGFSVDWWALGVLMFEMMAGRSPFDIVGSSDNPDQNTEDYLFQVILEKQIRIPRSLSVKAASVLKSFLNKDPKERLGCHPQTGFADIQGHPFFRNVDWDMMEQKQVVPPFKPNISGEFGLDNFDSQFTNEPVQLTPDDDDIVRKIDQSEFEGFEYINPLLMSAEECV
# From the text: Protein Kinase C Assay (general). The peptides Ac-Ser-Phe-Arg-Arg-Arg-NH2 (for PKC α, β and γ) and acetyl-[…]NH2 (for PKC ε and ζ) were used as substrates.
# [2] = molecular target: PKCγ (Homo sapiens, UniProt P05129); parameters: purchased Panvera; settings: literature values; relative to most potently inhibited isoform (=1); cited from earlier work
# [3] = molecular target: PKCη (Homo sapiens, UniProt P24723); parameters: purchased Panvera; settings: literature values; relative to most potently inhibited isoform (=1); cited from earlier work
# [4] = molecular target: T2, PKC ι (Homo sapiens, UniProt P41743); settings: literature values; relative to most potently inhibited isoform (=1); cited from earlier work
# T2 construct: purchased Panvera
# T2 sequence (P41743 1-596): T1 sequence (P41743 1-596)
# [5] = molecular target: T3, PKCζ (Homo sapiens, UniProt Q05513); parameters: purchased Panvera; settings: literature values; relative to most potently inhibited isoform (=1); cited from earlier work
# T3 sequence (Q05513 1-592): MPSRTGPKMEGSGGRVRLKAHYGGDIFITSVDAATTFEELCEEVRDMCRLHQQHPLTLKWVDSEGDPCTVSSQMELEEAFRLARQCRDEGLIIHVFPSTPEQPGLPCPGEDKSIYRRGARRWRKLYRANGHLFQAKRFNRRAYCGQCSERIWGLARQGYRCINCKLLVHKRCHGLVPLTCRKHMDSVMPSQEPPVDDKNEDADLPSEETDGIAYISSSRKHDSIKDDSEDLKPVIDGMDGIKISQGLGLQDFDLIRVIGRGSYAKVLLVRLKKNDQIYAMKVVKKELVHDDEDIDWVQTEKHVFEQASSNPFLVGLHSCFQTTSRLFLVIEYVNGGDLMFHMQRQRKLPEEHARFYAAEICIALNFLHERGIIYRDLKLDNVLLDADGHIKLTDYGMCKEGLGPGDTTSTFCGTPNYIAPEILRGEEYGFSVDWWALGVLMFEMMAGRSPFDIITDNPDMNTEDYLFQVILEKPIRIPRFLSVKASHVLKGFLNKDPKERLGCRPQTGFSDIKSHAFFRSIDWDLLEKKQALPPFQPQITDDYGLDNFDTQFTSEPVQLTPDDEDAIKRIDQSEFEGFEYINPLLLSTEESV
# [6] = molecular target: PKCα (Homo sapiens, UniProt P17252); experiment: Protein Kinase Cα radioactive assay, peptide substrate Ac-Ser-Phe-Arg-Arg-Arg-NH2 (Example 1); format: biochemical; parameters: purchased Pan Vera; settings: versus variable peptide substrate
# Experimental: Protein Kinase C Assay (general). The peptides […] (for PKC α, β and γ) and acetyl-[…] (for PKC ε and ζ) were used as substrates. […] Total reaction volume was 50 μL. […] Following an additional 5 min incubation at ambient temperature, 75 μL from each reaction well was transferred into each well of a Unifilter (P81 cellulose phosphate paper) assay plate and washed four times with 0.1% phosphoric acid in water. […] IC50 values were calculated using GraFit (Erithacus Software Limited) and Ki values were calculated using Enzyme Kinetics, SigmaPlot (SPSS Inc.) […] An analogous protocol was employed for peptide 4 versus variable [[…]]. […] An analogous protocol was employed for peptide 4 versus variable [ATP]. Protein Kinase Cα Assay (Ki determination for peptide 6 versus variable […] substrate). […] The reaction was initiated as described above. […] Following an additional 5 min incubation at ambient temperature, 75 μL from each reaction well was transferred into each well of a Unifilter (P81 cellulose phosphate paper) assay plate and washed four times with 0.1% phosphoric acid in water. […] IC50 values were calculated using GraFit (Erithacus Software Limited) and Ki values were calculated using Enzyme Kinetics, SigmaPlot (SPSS Inc.)
# Sequence of PKCη (P24723 whole entry, canonical isoform): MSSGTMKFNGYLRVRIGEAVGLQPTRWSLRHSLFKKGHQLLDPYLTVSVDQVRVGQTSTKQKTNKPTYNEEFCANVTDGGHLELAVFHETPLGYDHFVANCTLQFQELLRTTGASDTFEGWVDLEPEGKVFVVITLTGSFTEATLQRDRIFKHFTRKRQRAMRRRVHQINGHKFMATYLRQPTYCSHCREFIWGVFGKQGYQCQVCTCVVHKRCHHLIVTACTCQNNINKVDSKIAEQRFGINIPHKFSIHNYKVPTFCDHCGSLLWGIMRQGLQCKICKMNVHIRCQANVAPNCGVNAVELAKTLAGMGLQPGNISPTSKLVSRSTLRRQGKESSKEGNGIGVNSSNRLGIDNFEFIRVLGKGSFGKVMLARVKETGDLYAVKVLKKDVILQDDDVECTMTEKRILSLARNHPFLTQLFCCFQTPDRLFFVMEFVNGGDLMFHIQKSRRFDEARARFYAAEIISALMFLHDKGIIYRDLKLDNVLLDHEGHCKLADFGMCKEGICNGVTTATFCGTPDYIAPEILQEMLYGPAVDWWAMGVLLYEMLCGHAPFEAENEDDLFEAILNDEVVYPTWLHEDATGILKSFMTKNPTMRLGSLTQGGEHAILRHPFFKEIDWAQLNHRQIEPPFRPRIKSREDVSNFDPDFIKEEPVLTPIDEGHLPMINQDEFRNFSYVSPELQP
compound,measurement,setting,value
"CC(C)C[C@H](NC(=O)[C@H](C)NC(=O)CNC(=O)[C@H](CCCNC(=N)N)NC(=O)[C@H](CCCNC(=N)N)NC(=O)[C@H](C)NC(=O)Cc1ccc(Cl)c(Cl)c1)C(=O)N[C@@H](CCCNC(=N)N)C(=O)N[C@@H](CNC(=O)c1ccc(-n2cccc2)cc1)C(=O)N[C@@H](C)C(=O)NCCS [Compound 6] ({Phenylacetyl(3,4-Cl2)}-ARRGALR[Dap](Benzoyl(4-(pyrrol-1-yl)))A-Cysteamide)",selectivity for PKCα versus PKCτ,[1],940 fold
same,"Fold selectivity (IC50), PKC γ",[2],580 fold
same,"Fold selectivity (IC50), PKC η",[3],1310 fold
same,"Fold selectivity (IC50), PKC ι",[4],940 fold
same,"Fold selectivity (IC50), PKC ζ",[5],640 fold
same,Ki,[6],800 pM
